Measurements published in patent US7179479B1, “Mosquito repellent isolated from Foeniculum vulgare fruit” (Naturobiotech Co., Ltd., priority 2000, dated 2007).
Values joined by “and” are separate entries in the source; they are usually repeats but may differ in a detail not shown here. Equal values may be shown once. Read-outs that look alike come from different tables or passages of the source.

Tests used:
Aedes aegypti [1] = experiment: Patch test of mosquito repellency (landings on treated gauze); format: in vivo; conditions: for Mosquito repellency of chromatography fractions (active / inert): patch test of Test 1, fractions of the hexane portion
Excerpt: Aedes aegypti were used in the tests of mosquito repellency in the experiments of the present invention. They were provided from the National Institute of Health in Korea and were selected from indoor breeding insects that were not exposed to insecticides or other drugs. Larvae were reared in 30×35×10 cm cages. […] The pupae were transferred to a paper-cup using a spoide and then the paper-cup was moved to a cage being a structure (35×35×35 cm) made from wire. […] For patch test, 35×35×35 cm screen wire cage were used. Tests were conducted on nulliparous females 7-10 days old. The methanol extract and 4 types of portions prepared in the Example 1 and 100 μl of ethanol were applied to a piece of gauze (50 mm-diameter). After drying in the air for 2 minutes, the gauze was put on a rubber glove with a 50 mm-diameter hole punched in it and it was exposed in a cage (35×35×35 cm containing 60 mosquitoes). Because the gauze on the rubber glove was 5 mm away from the skin, mosquitoes would probe through the gauze in an attempt to feed but could not reach the back of the hand. Repellent activity was measured by the number of mosquitoes landing on the gauze for 5 minutes. An untreated gauze (95% ethanol only) was also exposed to mosquitoes in the same manner and considered as a control. The degree of repellency was expressed in terms of percent repellency calculated according to the following equation. [formula] Also, in order to identify mosquito repelling activity, it was compared with synthetic repellent DEET by recording the number of landings.

Aedes aegypti [2] = experiment: Skin test of mosquito repellency (bites on treated skin); format: in vivo
Description: In order to exactly confirm mosquito repellent activity, the compounds containing repellent activity were further examined by a skin test directly against skin. The cage was covered with a 35×35×35 cm mail net structure. Tests were conducted against nulliparous females 7–10 days old. Both compounds, in 100 μl of ethanol, were applied to a rubber glove surface with a 50 mm diameter hole punched on the hand. After drying in the air for 1 minute, skin was exposed for 5 minutes in a cage containing 60 mosquitoes. Repellent activity was measured by the number of mosquitoes biting the skin. The control treated only with 95% ethanol was also exposed to mosquitoes in the same manner. The degree of repellency was expressed in terms of percent repellency calculated according to the following Equation 2. [formula]

[3] = skin treated with 300 ug/cm^2 DEET, cited from earlier work
rat [4] = conditions: oral administration; cited from earlier work
rat [5] = conditions: epidermal; cited from earlier work
[6] = patch test, dose 0.004 mg/cm^2 (so in the source)

Molecule | Mosquito repellency of chromatography fractions (active / inert) (Aedes aegypti [1]) | Repellency (average ± standard deviation, %) (Aedes aegypti [1]; [6]) [a %] | Repellency (average ± standard deviation, %) (Aedes aegypti [1]; patch test, dose 0.005 mg/cm^2) | Repellency (average ± standard deviation, %) (Aedes aegypti [1]; patch test, dose 0.005 mg/cm^2, listed as fenchone) [%] | Repellency (average ± standard deviation, %) (Aedes aegypti [1]; patch test, dose 0.01 mg/cm^2) [b %] | Repellency (average ± standard deviation, %) (Aedes aegypti [1]; patch test, dose 0.01 mg/cm^2, listed as fenchone) | Repellency (average ± standard deviation, %) (Aedes aegypti [1]; patch test, dose 0.02 mg/cm^2) [a %] | Repellency (average ± standard deviation, %) (Aedes aegypti [2]; dose 0.04 mg/cm^2) | Repellency (average ± standard deviation, %) (Aedes aegypti [2]; dose 0.1 mg/cm^2) | Repellency (average ± standard deviation, %) (Aedes aegypti [2]; dose 0.2 mg/cm^2) | Repellency (average ± standard deviation, %) (Aedes aegypti [2]; dose 0.4 mg/cm^2) | Repellency (average ± standard deviation, %) (Aedes aegypti [2]; dose 0.4 mg/cm^2, listed as fenchone) | Repellency (%) (Aedes aegypti [1]; patch test, dose 0.1 mg/cm^2, A. aegypti females, 5 min exposure) | skin penetration ratio ([3]; after 1 hour) [%] | skin penetration ratio ([3]; after 12 hours) [%] | LD50 (rat [4]) | LD50 (rat [5])
(+)-fenchone | potent active principles |  |  |  |  |  |  |  |  |  |  |  |  |  |  |  | 
CC1(C)C(=O)[C@@]2(C)CC[C@@H]1C2 [Fenchone, (+)-fenchone] |  | 100 | 82.1 ± 0.7c % | 82.1 | 93.9 ± 0.6 | potent repellency comparable with that of DEET | 100 | 76.2 ± 0.2c % | 91.7 ± 0.9b % | 100a % | 100a % | perfect repellent activity |  |  |  |  | 
CCN(CC)C(=O)c1cccc(C)c1 [DEET, N,N-diethyl-m-toluamide, reference compound] |  | 100 | 84.6% and 84.6 ± 1.3c % |  | 96.4 ± 0.5 |  | 100 | 98.4 ± 0.5b % | 100a % | 100a % | 100a % |  | > 80 | 30 | 36 |  | 
CC1CCC(C(C)(C)O)C(O)C1 (stereo not shown) [PMD, p-menthan-3,8-diol] |  |  |  |  |  |  |  |  |  |  |  |  |  |  |  | 2,408 mg/kg | > 2,000 mg/kg
CCCCCCCC/C=C/CCCCCCCC(=O)O [E-9-octadecenoic acid] | potent active principles | 100 | 73.4% and 73.4 ± 2.3c % |  |  |  | 98.6 ± 0.9 |  |  | 52.3 ± 0.9% | 80.4% and 80.4 ± 0.2% |  |  |  |  |  | 
